Experimental data reported in PubChem BioAssay (NCI).
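GI50 marks 50% less growth. At the TGI there is no net growth.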

Columns and labels:
Assay in all cases: DTP human tumour cell line panel, 384-well format
786-0 renal = tested on: 786-0 renal
A498 renal = tested on: A498 renal
A549 NSCLC = tested on: A549 NSCLC
ACHN renal = tested on: ACHN renal
BT-549 breast = tested on: BT-549 breast
CAKI-1 renal = tested on: CAKI-1 renal
CCRF-CEM leukemia = tested on: CCRF-CEM leukemia
COLO 205 colon = tested on: COLO 205 colon
DU-145 prostate = tested on: DU-145 prostate
EKVX NSCLC = tested on: EKVX NSCLC
HCC-2998 colon = tested on: HCC-2998 colon
HCT-116 colon = tested on: HCT-116 colon
HCT-15 colon = tested on: HCT-15 colon
HL-60(TB) leukemia = tested on: HL-60(TB) leukemia
HOP-62 NSCLC = tested on: HOP-62 NSCLC
HOP-92 NSCLC = tested on: HOP-92 NSCLC
HS 578T breast = tested on: HS 578T breast
HT29 colon = tested on: HT29 colon
IGROV1 ovarian = tested on: IGROV1 ovarian
K-562 leukemia = tested on: K-562 leukemia
KM12 colon = tested on: KM12 colon
LOX IMVI melanoma = tested on: LOX IMVI melanoma
M14 melanoma = tested on: M14 melanoma
MALME-3M melanoma = tested on: MALME-3M melanoma
MCF7 breast = tested on: MCF7 breast
MDA-MB-231 breast = tested on: MDA-MB-231 breast
MDA-MB-435 melanoma = tested on: MDA-MB-435 melanoma
MDA-MB-468 breast = tested on: MDA-MB-468 breast
MOLT-4 leukemia = tested on: MOLT-4 leukemia
NCI-H226 lung = tested on: NCI-H226 lung
NCI-H23 lung = tested on: NCI-H23 lung
NCI-H322M lung = tested on: NCI-H322M lung
NCI-H460 NSCLC = tested on: NCI-H460 NSCLC
NCI-H522 lung = tested on: NCI-H522 lung
NCI/ADR-RES ovarian = tested on: NCI/ADR-RES ovarian
OVCAR-3 ovarian = tested on: OVCAR-3 ovarian
OVCAR-4 ovarian = tested on: OVCAR-4 ovarian
OVCAR-5 ovarian = tested on: OVCAR-5 ovarian
OVCAR-8 ovarian = tested on: OVCAR-8 ovarian
PC-3 prostate = tested on: PC-3 prostate
RPMI-8226 leukemia = tested on: RPMI-8226 leukemia
RXF 393 renal = tested on: RXF 393 renal
SF-268 CNS = tested on: SF-268 CNS
SF-295 CNS = tested on: SF-295 CNS
SF-539 CNS = tested on: SF-539 CNS
SK-MEL-28 melanoma = tested on: SK-MEL-28 melanoma
SK-MEL-5 melanoma = tested on: SK-MEL-5 melanoma
SK-OV-3 ovarian = tested on: SK-OV-3 ovarian
SN12C renal = tested on: SN12C renal
SNB-19 CNS = tested on: SNB-19 CNS
SNB-75 CNS = tested on: SNB-75 CNS
SW-620 colon = tested on: SW-620 colon
T-47D breast = tested on: T-47D breast
TK-10 renal = tested on: TK-10 renal
U251 glioblastoma = tested on: U251 glioblastoma
UACC-257 melanoma = tested on: UACC-257 melanoma
UACC-62 melanoma = tested on: UACC-62 melanoma
UO-31 renal = tested on: UO-31 renal
SK-MEL-2 melanoma = tested on: SK-MEL-2 melanoma

In the case of `CNC(=O)c1ccc(Nc2nc(OC3CCCC3)c3c(-c4ccc5nc(C)oc5c4)c[nH]c3n2)c(OC)c1`, the GI50 ([…]-0 renal) is reported as 0.065 µM, the TGI (786-0 renal) is reported as 14.2 µM and the GI50 (A498 renal) is reported as 0.239 µM. It also gave a TGI (A498 renal) of 9.43 µM, a GI50 (A549 NSCLC) of 0.0223 µM and a TGI (A549 NSCLC) of 2.89 µM. It also gave a GI50 (ACHN renal) of 0.0878 µM, a TGI (ACHN renal) of 15.5 µM and a GI50 (BT-549 breast) of 0.0949 µM. It also gave a TGI (BT-549 breast) of 65.1 µM, a GI50 (CAKI-1 renal) of 0.387 µM and a TGI (CAKI-1 renal) of 3.29 µM. It also gave a GI50 (CCRF-CEM leukemia) of 0.0226 µM, a TGI (CCRF-CEM leukemia) of 0.0445 µM and a GI50 (COLO 205 colon) of 0.0331 µM. The TGI (COLO 205 colon) was 0.233 µM, the GI50 (DU-145 prostate) was 0.0743 µM and the TGI (DU-145 prostate) was 15.8 µM. The GI50 (EKVX NSCLC) was 0.187 µM, the TGI (EKVX NSCLC) was 15.3 µM and the GI50 (HCC-2998 colon) was 24.5 µM. For the same compound, the TGI (HCC-2998 colon) was > 100 µM, the GI50 (HCT-116 colon) was 0.0467 µM and the TGI (HCT-116 colon) was 11 µM. The GI50 (HCT-15 colon) was 0.0375 µM, the TGI (HCT-15 colon) was 2.84 µM and the GI50 (HL-60(TB) leukemia) was 0.0408 µM. It also gave a TGI (HL-60(TB) leukemia) of 1.31 µM, a GI50 (HOP-62 NSCLC) of 0.0376 µM and a TGI (HOP-62 NSCLC) of 5.77 µM. It also gave a GI50 (HOP-92 NSCLC) of 0.681 µM, a TGI (HOP-92 NSCLC) of 9.34 µM and a GI50 (HS 578T breast) of 0.0775 µM. For the same compound, the TGI (HS 578T breast) was 0.891 µM, the GI50 (HT29 colon) was 0.0845 µM and the TGI (HT29 colon) was > 100 µM. For the same compound, the GI50 (IGROV1 ovarian) was 0.145 µM, the TGI (IGROV1 ovarian) was 15.8 µM and the GI50 (K-562 leukemia) was 0.121 µM. For the same compound, the TGI (K-562 leukemia) was 19.4 µM, the GI50 (KM12 colon) was 0.0817 µM and the TGI (KM12 colon) was > 100 µM. For the same compound, the GI50 (LOX IMVI melanoma) was 0.0454 µM, the TGI (LOX IMVI melanoma) was 14.2 µM and the GI50 (M14 melanoma) was 0.0843 µM. The TGI (M14 melanoma) was 63.8 µM, the GI50 (MALME-3M melanoma) was 0.0936 µM and the TGI (MALME-3M melanoma) was 14.2 µM. For the same compound, the GI50 (MCF7 breast) was 0.13 µM, the TGI (MCF7 breast) was 15.7 µM and the GI50 (MDA-MB-231 breast) was 0.29 µM. For the same compound, the TGI (MDA-MB-231 breast) was > 100 µM, the GI50 (MDA-MB-435 melanoma) was 11 µM and the TGI (MDA-MB-435 melanoma) was 49.1 µM. For the same compound, the GI50 (MDA-MB-468 breast) was 0.0454 µM, the TGI (MDA-MB-468 breast) was 0.226 µM and the GI50 (MOLT-4 leukemia) was 0.0118 µM. It also gave a TGI (MOLT-4 leukemia) of 0.0304 µM, a GI50 (NCI-H226 lung) of 0.381 µM and a TGI (NCI-H226 lung) of 9.7 µM. The GI50 (NCI-H23 lung) was 0.0643 µM, the TGI (NCI-H23 lung) was 0.615 µM and the GI50 (NCI-H322M lung) was 0.593 µM. It also gave a TGI (NCI-H322M lung) of 52.8 µM, a GI50 (NCI-H460 NSCLC) of 0.0348 µM and a TGI (NCI-H460 NSCLC) of 1.71 µM. For the same compound, the GI50 (NCI-H522 lung) was 0.0998 µM, the TGI (NCI-H522 lung) was 1.44 µM and the GI50 (NCI/ADR-RES ovarian) was 0.316 µM. The TGI (NCI/ADR-RES ovarian) was 60.5 µM, the GI50 (OVCAR-3 ovarian) was 0.169 µM and the TGI (OVCAR-3 ovarian) was 0.965 µM. For the same compound, the GI50 (OVCAR-4 ovarian) was 1.9 µM, the TGI (OVCAR-4 ovarian) was 17.7 µM and the GI50 (OVCAR-5 ovarian) was 0.146 µM. For the same compound, the TGI (OVCAR-5 ovarian) was > 100 µM, the GI50 (OVCAR-8 ovarian) was 0.0458 µM and the TGI (OVCAR-8 ovarian) was 12.5 µM. For the same compound, the GI50 (PC-3 prostate) was 0.896 µM, the TGI (PC-3 prostate) was 15.2 µM and the GI50 (RPMI-8226 leukemia) was 0.0618 µM. The TGI (RPMI-8226 leukemia) was 0.271 µM, the GI50 (RXF 393 renal) was 0.106 µM and the TGI (RXF 393 renal) was 1.96 µM. It also gave a GI50 (SF-268 CNS) of 0.0185 µM, a TGI (SF-268 CNS) of 0.0727 µM and a GI50 (SF-295 CNS) of 0.265 µM. For the same compound, the TGI (SF-295 CNS) was > 100 µM, the GI50 (SF-539 CNS) was 0.0476 µM and the TGI (SF-539 CNS) was 1.84 µM. The GI50 (SK-MEL-28 melanoma) was 5.58 µM, the TGI (SK-MEL-28 melanoma) was 30.5 µM and the GI50 (SK-MEL-5 melanoma) was 0.0735 µM. The TGI (SK-MEL-5 melanoma) was 1.55 µM, the GI50 (SK-OV-3 ovarian) was 0.352 µM and the TGI (SK-OV-3 ovarian) was 5.28 µM. For the same compound, the GI50 (SN12C renal) was 0.224 µM, the TGI (SN12C renal) was 2.76 µM and the GI50 (SNB-19 CNS) was 0.225 µM. For the same compound, the TGI (SNB-19 CNS) was 41.6 µM, the GI50 (SNB-75 CNS) was 0.0686 µM and the TGI (SNB-75 CNS) was 1.78 µM. The GI50 (SW-620 colon) was 0.0535 µM, the TGI (SW-620 colon) was 0.762 µM and the GI50 (T-47D breast) was 0.25 µM. For the same compound, the TGI (T-47D breast) was > 100 µM, the GI50 (TK-10 renal) was 0.626 µM and the TGI (TK-10 renal) was > 100 µM. It also gave a GI50 (U251 glioblastoma) of 0.063 µM, a TGI (U251 glioblastoma) of 16 µM and a GI50 (UACC-257 melanoma) of 0.328 µM. It also gave a TGI (UACC-257 melanoma) of 47.3 µM, a GI50 (UACC-62 melanoma) of 0.167 µM and a TGI (UACC-62 melanoma) of 96.4 µM. The GI50 (UO-31 renal) was 0.0898 µM and the TGI (UO-31 renal) was > 100 µM.
In the case of `Nc1nc(F)nc2c1ncn2C1OC(COP(=O)(O)O)C(O)C1O` (centres undefined), the GI50 ([…]-0 renal) is reported as 33 µM, the GI50 (A498 renal) is reported as 31.2 µM and the GI50 (A549 NSCLC) is reported as 36.1 µM. The GI50 (ACHN renal) was 32.9 µM, the GI50 (BT-549 breast) was 20 µM and the TGI (BT-549 breast) was 96.9 µM. It also gave a GI50 (CAKI-1 renal) of 25.3 µM, a GI50 (CCRF-CEM leukemia) of 1.91 µM and a TGI (CCRF-CEM leukemia) of 3.57 µM. For the same compound, the GI50 (DU-145 prostate) was 21.6 µM, the TGI (DU-145 prostate) was 93.8 µM and the GI50 (HCT-116 colon) was 19.3 µM. The GI50 (HCT-15 colon) was 39.9 µM, the GI50 (HL-60(TB) leukemia) was 3.71 µM and the TGI (HL-60(TB) leukemia) was 11 µM. For the same compound, the GI50 (HOP-62 NSCLC) was 5.8 µM, the TGI (HOP-62 NSCLC) was 21.2 µM and the GI50 (HOP-92 NSCLC) was 30.9 µM. The GI50 (HS 578T breast) was 55 µM, the GI50 (K-562 leukemia) was 58.4 µM and the GI50 (LOX IMVI melanoma) was 45.4 µM. It also gave a GI50 (M14 melanoma) of 8.5 µM, a TGI (M14 melanoma) of 37.3 µM and a GI50 (MALME-3M melanoma) of 25.1 µM. For the same compound, the GI50 (MCF7 breast) was 41.2 µM, the GI50 (MDA-MB-231 breast) was 32.9 µM and the GI50 (MDA-MB-435 melanoma) was 49.9 µM. It also gave a GI50 (MDA-MB-468 breast) of 71 µM, a GI50 (MOLT-4 leukemia) of 1.53 µM and a TGI (MOLT-4 leukemia) of 2.89 µM. The GI50 (NCI-H23 lung) was 11.7 µM, the TGI (NCI-H23 lung) was 32.9 µM and the GI50 (NCI-H522 lung) was 59.7 µM. It also gave a GI50 (NCI/ADR-RES ovarian) of 4.74 µM, a TGI (NCI/ADR-RES ovarian) of 41.2 µM and a GI50 (OVCAR-3 ovarian) of 58.4 µM. For the same compound, the GI50 (OVCAR-5 ovarian) was 57.5 µM, the GI50 (OVCAR-8 ovarian) was 3.16 µM and the TGI (OVCAR-8 ovarian) was 15.8 µM. For the same compound, the GI50 (PC-3 prostate) was 37.6 µM, the GI50 (SF-268 CNS) was 48.3 µM and the GI50 (SK-MEL-2 melanoma) was 51.7 µM. It also gave a TGI (SK-MEL-2 melanoma) of 84.5 µM, a GI50 (SK-MEL-28 melanoma) of 7.83 µM and a GI50 (SK-OV-3 ovarian) of 24 µM. For the same compound, the GI50 (SN12C renal) was 4.96 µM, the TGI (SN12C renal) was 21.8 µM and the GI50 (SNB-19 CNS) was 20.6 µM. The GI50 (T-47D breast) was 83 µM, the GI50 (U251 glioblastoma) was 90.2 µM and the GI50 (UACC-62 melanoma) was 23.2 µM. The TGI (UACC-62 melanoma) was 54.1 µM and the GI50 (UO-31 renal) was 30.6 µM.
